Holding throughout (format): cell-based, human
Assay [1] relates to CD8+ T-cells from HLA A2+ healthy donors. The assay is described as follows: Priming of CD8+ T-cells from healthy donors, tetramer staining. The conditions noted are these: three healthy donors, tetramers, compared to WT peptides. As for the experimental part:
To generate T-cell peptide lines, CD8 T-cells were purified from the PBMCs of HLA A2+ donors using CD8 microbeads according to the manufacturer's instructions (Miltenyi Biotech, Bergisch Gladbach, Germany). Purified CD8 cells (3×10^6) were co-incubated with autologous CD8neg cells (6-8×10^6) in 24 well plates in 2 mL of T-cell media, but with no IL-15. 25 μM of each peptide was used. The cultures had 50% of the media changed thrice weekly. Tetramer staining was performed as above, using 500,000 cells per tube. Each T-cell line was used in an IFNγ enzyme linked immunosorbent spot (ELISpot) assay with cell lines MDA-MB-231, melanoma MM909.24 and Saos-2. 50,000 T-cells and 15,000 cancer cells were used per well. Incubation was performed for 48 h, and the assay developed according the manufacturer's instructions (Mabtech, Nacka Strand, Sweden).
CPL assay of CR24 was performed as described above. Candidate peptide agonists were designed using the CR24 CPL and an online algorithm (wsb.warwick.ac.uk/wsbcToolsWebpage/user_cases.php). Priming of CD8 T-cells from healthy donors, tetramer staining and chromium release cytotoxicity assays were performed as described above.

Assay [2] has as its system CD8 T-cells from a renal cell carcinoma (RCC) and chronic lymphocytic leukaemia (CLL) patient. The assay is described as follows: Priming of CD8 T-cells from RCC and CLL patients, TAPI-0 assay or tetramer staining. The conditions noted are these: primed 28 days. From the text:
(§1) (FIG. 14A) CD8 T-cells from a renal cell carcinoma (RCC) and chronic lymphocytic leukaemia (CLL) patient were left unprimed or primed with […] (SEQ ID NO: 80) peptide for 28 days. […] (SEQ ID NO: 80) peptide for 28 days.

Another assay deals with autologous cancer cells. The assay is described as follows: Killing of autologous cancer cells by primed CD8s (RCC and CLL patient). The conditions noted are these: compared to unprimed T-cells.
From the text: as §1

Assay [3] concerns CD8 T-cells from an acute myeloid leukaemia (AML) patient and two CLL patients. The assay is described as follows: Priming of CD8 T-cells from AML and CLL patients, IMP-2 tetramer. The conditions noted are these: primed 28 days, versus unprimed.
The test system of assay [4] is autologous melanoma cells. The assay is described as follows: Chromium release cytotoxicity assay of peptide primed T-cell lines. The conditions noted are these: patient 37; compared to WT Melan A peptide primed T-cells.
The test system of another assay is CLL cells. The assay is described as follows: Killing assay with primed T-cells from CLL patient 3. The conditions noted are these: compared to IMP-2 primed CD8s.
From the text: as §1

Turning to “ITSAIGILPV (listed as Homo sapiens) [APL 2]”, the “priming of Melan A, BST2 and IMP2 T-cells” value in assay [1] was “exhibiting effect across each donor”.

Take “MTSAIGILPV (listed as Homo sapiens) [APL 5]”: in assay [2], the “MTSAIGILPV specific T-cells after priming” value is listed as “presence”. Moreover, the “killing of autologous cancer cells by primed CD8s” value in the assay with autologous cancer cells is listed as “killed more autologous cancer cells than the unprimed T-cells”. Further, the “proportion of IMP-2 specific T-cells after priming” value in assay [3] was “induced a greater proportion of IMP-2 cells”. In addition, the “lysis of autologous melanoma cells by primed T-cells” value in assay [4] is reported as “superior lysis”. The “killing of CLL cells by primed T-cells” value in the assay with CLL cells is “killed more CLL cells than the IMP-2 primed CD8s”. For the same sequence, the “priming of Melan A, BST2 and IMP2 T-cells” value in assay [1] was “most effective super-agonist”; in assay [1] (listed as MTSAIGVLVP) it was “most effective of the candidate super-agonists at priming”.

The values above are taken from US12053513B2, “Cancer-specific T-cell receptors” (UNIVERSITY COLLEGE CARDIFF CONSULTANTS LTD., priority 2018, dated 2024).
